Where a name gives a salt, the structure may show the parent alone. Read-outs that look alike come from different tables or passages of the source.
What was measured:
[1] = target: 2,3-epoxysqualene-lanosterol cyclase (Candida albicans, UniProt Q04782); assay: Inhibition of 2,3-epoxysqualene-lanosterol cyclase from Candida albicans (cell-free extract, 14C-squalene epoxide); assay type: biochemical
[2] = Acute toxicity in the case of subcutaneous administration to mice; details: mouse, in vivo, sc
Experimental: The IC50 values are determined graphically and are given in μg of test substance per ml. Table I contains IC50 values determined in the above test for representative members of the class of compound defined by formula I as well as data concerning the acute toxicity in the case of subcutaneous administration to mice (LD50 in mg/kg).

[3] = tested on: Candida albicans; assay: Agar dilution method, MIC alone and in combination with sterol biosynthesis inhibitors, FIC; assay type: cell-based; details: for MIC: Candida albicans, 48 h, alone, 37° C., 2 days
[4] = C. albicans cell-free extract, pH 6.9, 30°, 1 hour, read-out: IC50 (converted)

2,3-epoxysqualene-lanosterol cyclase, sequence (Q04782 whole entry): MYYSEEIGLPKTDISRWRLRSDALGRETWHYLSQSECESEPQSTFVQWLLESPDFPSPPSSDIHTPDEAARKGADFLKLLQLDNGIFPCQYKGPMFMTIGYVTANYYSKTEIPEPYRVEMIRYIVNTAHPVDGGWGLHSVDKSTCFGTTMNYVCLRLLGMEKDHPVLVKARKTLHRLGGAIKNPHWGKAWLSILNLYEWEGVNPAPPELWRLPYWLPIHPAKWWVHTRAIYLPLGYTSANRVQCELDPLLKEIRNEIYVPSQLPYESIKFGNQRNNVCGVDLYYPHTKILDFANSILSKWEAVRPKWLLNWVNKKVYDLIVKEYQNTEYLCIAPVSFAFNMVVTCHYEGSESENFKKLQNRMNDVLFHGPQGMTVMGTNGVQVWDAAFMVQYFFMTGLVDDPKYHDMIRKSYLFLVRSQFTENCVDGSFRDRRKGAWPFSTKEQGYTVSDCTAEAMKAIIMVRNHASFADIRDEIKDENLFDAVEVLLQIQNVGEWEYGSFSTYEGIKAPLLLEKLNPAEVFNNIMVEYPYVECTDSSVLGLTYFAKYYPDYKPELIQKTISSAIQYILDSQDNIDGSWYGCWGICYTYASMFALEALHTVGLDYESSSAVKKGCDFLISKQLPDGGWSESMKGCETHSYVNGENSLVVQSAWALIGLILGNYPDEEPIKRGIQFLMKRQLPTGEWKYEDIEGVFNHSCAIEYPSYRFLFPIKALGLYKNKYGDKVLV

SMILES | IC50 [1] | IC50 [1, 4] | further results
CN(C)CCCCOc1ccc(C(=O)c2ccccc2)cc1 [Compound 1, 4-[[4-(dimethylamino)butyl]oxy]benzophenone] | 2860 nM | – | LD50 [2]: > 4000 mg/kg
CN(C)CCCCCOc1ccc(C(=O)c2ccccc2)cc1 [Compound 2, 4-[(5-(dimethylamino)pentyl)oxy]benzophenone] | – | 514 nM | –
CN(C)CCCCCCOc1ccc(C(=O)c2ccccc2)cc1 [Compound 3, 4-[(6-dimethylamino)hexyl)oxy]benzophenone hydrochloride] | – | 461 nM | –
CCN(CC)CCCCCCOc1cccc(C(=O)CCc2ccccc2)c1 [Compound 4, 3'-[[6-(diethylamino)hexyl]oxy]-3-phenypropiophenone] | – | 1570 nM | –
CN(C)CCCCCCOc1ccc(C(=O)/C=C/c2ccccc2)cc1 [Compound 5, (E)-4'-[[6-(dimethylamino)hexyl]oxy]-3-phenylacrylophenone] | – | 1710 nM | –
CN(C)CCCCCCOc1ccc(C(=O)Cc2ccccc2)cc1 [Compound 6] | – | 191 nM | –
CCN(CC)CCCCCCOc1ccc(C(=O)CCc2ccccc2)cc1 [Compound 7, 4'-[[6-(diethylamino)hexyl]oxy]-3-phenylpropiophenone] | – | 708 nM | –
CN(C)CCCCCCOc1ccc(C(=O)CCc2ccccc2)cc1 [Compound 8, 4'-[[6-(dimethylamino)hexyl]oxy]-3-phenylpropiophenone] | – | 990 nM | –
CCN(CC)CCCCCCOc1ccc(C(=O)c2ccccc2)cc1 [Compound 9, 4'-[[6-(diethylamino)hexyl]oxy]benzophenone] | – | 1020 nM | –
CN(C)CCCCCCOc1cccc(C(=O)/C=C/c2ccccc2)c1 [Compound 10, (E)-3'-[[6-(dimethylamino)hexyl]oxy]-3-phenylacrylophenone] | – | 6540 nM | –
CN(C)CCCCCCOc1cccc(C(=O)CCc2ccccc2)c1 [Compound 11] | – | 2830 nM | –
CN(C)CCCCCCOc1ccc(C(=O)c2ccc(F)cc2)cc1 [Compound 12, 4-[[6-(dimethylamino)hexyl]oxy]-4'-fluorobenzophenone] | – | 524 nM | –
CN(C)CCCCCCOc1cccc(C(=O)c2ccccc2)c1 [Compound 13, 3-[(6-(dimethylamino)hexyl)oxy]benzophenone] | – | 6150 nM | –
CCN(CC)CCCCCCOc1ccc(C(=O)C#Cc2ccccc2)cc1 [Compound 14, 4'-[[6-(diethylamino)hexyl]oxy]-3-phenylpropiolophenone] | – | 8210 nM | –
CN(C)CCCCCCOc1ccc(C(=O)c2c(F)c(F)c(F)c(F)c2F)cc1 [Compound 15, 4'-[[6-(dimethylamino)hexyl]oxy]-2,3,4,5,6-pentafluorobenzophenone] | – | 2140 nM | –
CCCN(CCC)CCCCCCOc1ccc(C(=O)c2ccccc2)cc1 [Compound 16, 4-[[6-(dipropylamino)hexyl]oxy]benzophenone] | – | 2410 nM | –
O=C(c1ccccc1)c1ccc(OCCCCCCN2CCC2)cc1 [Compound 17, 4-[(6-(azetidinyl)hexyl)oxy]benzophenone] | 1780 nM | – | –
CN(C)CCCCCCCOc1ccc(C(=O)c2ccccc2)cc1 [Compound 18, 4-[[7-(dimethylamino)heptyl]oxy]benzophenone] | – | 353 nM | –
CN(C)CCCCCCCCOc1ccc(C(=O)c2ccccc2)cc1 [Compound 19] | – | 1190 nM | –
CN(C)CCCCCCCCCOc1ccc(C(=O)c2ccccc2)cc1 [Compound 20, 4-[[9-(dimethylamino)nonyl]oxy]benzophenone] | – | 4350 nM | –
CN(C)CCCCCCCCCCOc1ccc(C(=O)c2ccccc2)cc1 [Compound 21, 4-[[10-(dimethylamino)decyl]oxy]benzophenone] | – | 5240 nM | –
O=C(c1ccccc1)c1ccc(OCCCCCCN2CCCC2)cc1 [Compound 22, 4-[(6-(pyrrolidino)hexyl)oxy]benzophenone] | – | 967 nM | –
CN(C)CCCCCCOc1ccc(CC(=O)c2ccccc2)cc1 [Compound 23, 2-[4-[[6-(dimethylamino)hexyl]oxy]phenyl]acetophenone] | – | 560 nM | –

SMILES | IC50 [1] | IC50 [1, 4] | further results
CNCCCCCCOc1ccc(C(=O)c2ccccc2)cc1 [Compound 24, 4-[[6-(methylamino)hexyl]oxy]benzophenone] | – | 963 nM | –
Cc1cc(C(=O)c2ccccc2)ccc1OCCCCCCN(C)C [Compound 25, 4-[[6-(dimethylamino)hexyl]oxy]-3-methylbenzophenone] | – | 560 nM | –
Cc1cccc(C(=O)c2ccc(OCCCCCCN(C)C)cc2)c1C [Compound 26, 4-[[6-(dimethylamino)hexyl]oxy]-2',3'-dimethylbenzophenone] | – | 1190 nM | –
CN(C)CCCCCCOc1ccc(C(=O)c2ccc(Cl)cc2Cl)cc1 [Compound 27, 4-[[6-(dimethylamino)hexyl]oxy]-2',4'-dichlorobenzophenone] | – | 659 nM | –
CN(C)CCCCCCOc1ccc(C(=O)c2cc(Cl)cc(Cl)c2)cc1 [Compound 28, 4-[[6-(dimethylamino)hexyl]oxy]-3',5'-dichlorobenzophenone] | – | 3800 nM | –
CN(C)CCCCCCOc1ccc(C(=O)c2ccc([N+](=O)[O-])cc2)cc1 [Compound 29, 4-[[6-(dimethylamino)hexyl]oxy]-4'-nitrobenzophenone] | – | 756 nM | –
CN(C)CCCCCCOc1ccc(C(=O)c2ccc(Cl)cc2Cl)cc1Cl [Compound 30, 4-[[6-(dimethylamino)hexyl]oxy]-2',3,4'-trichlorobenzophenone] | – | 233 nM | –
C=CCN(C)CCCCCCOc1ccc(C(=O)c2ccccc2)cc1 [Compound 31, 4-[[6-(allylmethylamino)hexyl]oxy]benzophenone] | 125 nM | – | LD50 [2]: 1000 to 2000 mg/kg
C=CCN(C)CCCCCCOc1ccc(C(=O)Cc2ccccc2)cc1 [Compound 32, 4-[[6-(allylmethylamino)hexyl]oxy]-2-phenylacetophenone] | 95.8 nM | – | –
C=CCN(C)CCCCCCOc1ccc(C(=O)c2ccc(F)cc2)cc1 [Compound 33, 4-[[6-(allylmethylamino)hexyl]oxy]-4'-fluorobenzophenone] | 83.9 nM | – | –
C=CCN(C)CCCCCCOc1ccc(C(=O)c2ccccc2)cc1C [Compound 34, 4-[[6-(allylmethylamino)hexyl]oxy]-3-methylbenzophenone] | 87.5 nM | – | –
C=CCN(C)CCCCCCOc1ccc(C(=O)c2cccc(C)c2C)cc1 [Compound 35, 4-[[6-(allylmethylamino)hexyl]oxy]-2',3'-dimethylbenzophenone] | 224 nM | – | –
C=CCN(C)CCCCCCOc1ccc(C(=O)c2ccc(Cl)cc2Cl)cc1 [Compound 36, 4-[[6-(allylmethylamino)hexyl]oxy]-2',4'-dichlorobenzophenone] | 131 nM | – | –
C=CCN(C)CCCCCCOc1ccc(C(=O)c2cc(Cl)cc(Cl)c2)cc1 [Compound 37, 4-[[6-(allylmethylamino)hexyl]oxy]-3',5'-dichlorobenzophenone] | 809 nM | – | –
C=CCN(C)CCCCCCOc1ccc(C(=O)c2ccc([N+](=O)[O-])cc2)cc1 [Compound 38, 4-[[6-(allylmethylamino)hexyl]oxy]-4'-nitrobenzophenone] | 101 nM | – | –
C=CCN(C)CCCCCCOc1ccc(C(=O)c2ccccc2)cc1Cl [Compound 39, 4-[[6-(allylmethylamino)hexyl]oxy]-3-chlorobenzophenone] | 64.8 nM | – | –
C=CCN(C)CCCCCCOc1ccc(C(=O)c2ccc(Cl)cc2Cl)cc1Cl [Compound 40, 4-[[6-(allylmethylamino)hexyl]oxy]-2',3,4'-trichlorobenzophenone] | 57.2 nM | – | –
C=CCN(C)C/C=C/COc1ccc(C(=O)c2ccccc2)cc1 [Compound 41, trans-4-[[4-(allylmethylamino)-2-butenyl]oxy]benzophenone] | 62.2 nM | – | –
C=CCN(C)C/C=C/COc1ccc(C(=O)c2ccc(Cl)cc2Cl)cc1 [Compound 42, trans-4-[[4-(allylmethylamino)-2-butenyl]oxy]-2',4'-dichlorobenzophenone] | 17.9 nM | – | –
CN(C)C/C=C/COc1ccc(C(=O)c2ccccc2)cc1 [Compound 43, trans-4-[[4-(dimethylamino)-2-butenyl]oxy]benzophenone] | – | 745 nM | –
CN(C)C/C=C/COc1ccc(C(=O)c2ccc(Cl)cc2Cl)cc1 [Compound 44, trans-4-[[4-(dimethylamino)-2-butenyl]oxy]-2',4'-dichlorobenzophenone] | – | 178 nM | –
CC(=O)N1CCN(c2ccc(OCC3COC(Cn4ccnc4)(c4ccc(Cl)cc4Cl)O3)cc2)CC1 (stereo not drawn) [Ketoconazole, reference compound] | – | – | MIC in combination ([3]; C. albicans B4, Compound 6 + Ketoconazole in combination): 0.155 µg/mL; MIC in combination ([3]; C. albicans B5, Compound 6 + Ketoconazole in combination): 0.31 µg/mL; MIC in combination ([3]; C. albicans H12, Compound 6 + Ketoconazole in combination): 0.155 µg/mL; MIC in combination ([3]; C. albicans H29, Compound 6 + Ketoconazole in combination): 0.03 µg/mL; MIC in combination ([3]; C. albicans H42, Compound 6 + Ketoconazole in combination): 0.155 µg/mL; MIC ([3]; C. albicans B4): 5 µg/mL; MIC ([3]; C. albicans B5): 5 µg/mL; MIC ([3]; C. albicans H12): 5 µg/mL; MIC ([3]; C. albicans H29): 0.25 µg/mL; MIC ([3]; C. albicans H42): 10 µg/mL
CN(C/C=C/C#CC(C)(C)C)Cc1cccc2ccccc12 [Terbinafin, reference compound] | – | – | MIC in combination ([3]; C. albicans B4, Compound 6 + Terbinafin in combination): 0.55 µg/mL; MIC in combination ([3]; C. albicans B5, Compound 6 + Terbinafin in combination): 0.75 µg/mL; MIC in combination ([3]; C. albicans H12, Compound 6 + Terbinafin in combination): 6.25 µg/mL; MIC in combination ([3]; C. albicans H29, Compound 6 + Terbinafin in combination): 1.55 µg/mL; MIC in combination ([3]; C. albicans H42, Compound 6 + Terbinafin in combination): 6.25 µg/mL; MIC ([3]; C. albicans B4): 12.5 µg/mL; MIC ([3]; C. albicans B5): 6.25 µg/mL; MIC ([3]; C. albicans H12): 100 µg/mL; MIC ([3]; C. albicans H29): 6.25 µg/mL; MIC ([3]; C. albicans H42): 100 µg/mL
